This assay concerns ADT-perturbed human prostate cancer vasculature. Briefly: In vivo selection of Ph.D.-12 phage display library against ADT-perturbed human prostate cancer xenografts, NextGen sequencing of recovered phage. To be noted: for # clones recovered: third round of in vivo selection, data of the two tumor specimens combined; for Recovery of Candidate Peptides Percent of Total Phage After 3 Cycles of Selection: xenograft in SCID mouse, 72 h after ADT. Here is the method: Male SCID mice were castrated and pre-implanted with silastic tubing to provide sustained-release of testosterone to maintain human serum levels testosterone in the host mouse and to facilitate castration/androgen deprivation (ADT). Human prostate tumor tissue was prepared for transplantation by cutting the radical prostatectomy surgical remnant in ViaSpan into approximately 1.0 mm^3 to 2.0 mm^3 wedges. Tissue was transplanted, into individual incisions in the skin; four pieces of tissue were transplanted on each flank of mice anesthetized with isoflurane. Each piece of tumor tissue was dipped into Matrigel, inserted into an incision, and the incisions closed with tissue glue.
Anastamosis of the human vasculature of the prostate cancer xenografts to the host mouse vascular system occurred between Days 5 and 6 after tissue transplantation, and the vasculature had stabilized by Day 21 after transplantation.
Seventy-two hours after initiation of ADT, the host mouse was anesthetized with acepromazine/ketamine/xylazine and the peptide-phage display library introduced systemically by intra-cardiac injection into the right ventricle. The Ph.D.-12 phage library (NEB, Ipswich, Mass.) was injected at a concentration of 1.2×10^11 pfu in 100 μL. The phage library was allowed to circulate through the mouse host for 15 minutes. At the conclusion of the incubation the vascular volume was replaced by perfusion (40 ml) with PBS to remove unbound phage. […] The xenografts were excised and placed into an eppendorf tube containing 0.5 mL phage elution buffer (0.2 M Glycine-HCl pH 2.2, 0.5% BSA) and the xenografts homogenized with a rotor/stator homogenizer on ice. The phage containing homogenate was cleared by centrifugation at 20,800×G for 5 minutes, and neutralization buffer (Tris-HCl pH 9.1) added to the supernatant. The concentration of phage in the eluate was established by titration: serial 10-fold dilutions of the neutralized phage eluate (10 μl) were added to 200 μL of a mid-log culture of host bacteria (ER2738), the cells/phage mixed with 3.5 mL of molten top agar (48° C.), and plated onto LB. Plates were incubated at 37° C. overnight and blue plaques were counted for determination of pfu. Based on the pfu, an aliquot of the neutralized phage eluate that contained a standardized number of phage was amplified by addition to a 20 mL flask of LB/Tet inoculated with 200 μL of an overnight culture of ER2738, and the culture incubated for 4 hours. The culture was cleared of bacteria by centrifugation, the supernatant treated with ⅙ volume of PEG/NaCl (20% (w/v) PEG-8000, 2.5M NaCl), refrigerated overnight for phage precipitation, and phage recovered by centrifugation. The final phage pellet was resuspended in […] of TBS and titered (as described above). For all in vivo selections the input phage held constant at 1.2×10^11 phage per mouse.
Following the third sequential round of in vivo selection against tissue from a single patient, the recovered phage population was titered, diluted and plated at a concentration to yield approximately 100 plaques per plate. Individual plaques were picked and amplified for conventional DNA sequencing to verify that a diversity of peptides was selected. Subsequently, the region of the phage genome that contained the random peptides embedded in the pIII protein were amplified by PCR from all selected phage libraries in preparation for Next Gen Sequencing. PCR primers were designed that flanked the hyper-variable region of the phage genome, the region containing the peptide inserted into the pIII protein: (FWD:—3gIII: 5′-CCTTTCTATTCTCACTCTGCT-3′ (SEQ ID NO:98); REV:—155gIII: 5′-CCGTAACACTGAGTTTCGTCA-3′ (SEQ ID NO:99)). The amplified segments were the templates for the NextGen DNA sequencing process. Templates were quantified and concentrations normalized and underwent 454 Next Gen sequencing using 500 ng of amplified template DNA at a concentration of […]. […]

For TLQRTHFPPGVF, the “# clones recovered” value is given as 5.
Still for that read-out and setting: as for TLQRTHFPPAFP, the figure is 3.
Still for that read-out and setting: as for TMGLTHSRVRIE, the figure is 2.
For the sequence TLQRIHFPPAFS, the “# clones recovered” value was determined as 5.
For the sequence SPHWQPNAILLM, the “# clones recovered” value is reported as 17.
Consider KPPQTNTSAPYLP, for which the “Recovery of Candidate Peptides Percent of Total Phage After 3 Cycles of Selection” value was 27.3% (CaP Tissue Specimen 1) and 5.48% (CaP Tissue Specimen 2).
On to TXGFTAPRFPHY, for which the “# clones recovered” value came out at 47.
Still for that read-out and setting: as for TMGFTAPRFPHR, the figure is 4.
As to DPKFPQNSHLIT, the “Recovery of Candidate Peptides Percent of Total Phage After 3 Cycles of Selection” value is recorded as 0.63% (CaP Tissue Specimen 1) and 0.35% (CaP Tissue Specimen 2).
For TLQRTHFPPAFF, the “# clones recovered” value is 22.
Turning to TLQRTHFRRRF, the “# clones recovered” value is on record as 5.
On the same count and under the same terms, as for TMGFTAPRFPHL, the figure is 4; as for TLQRTHFPSA, 6.
As to GAMHLPWHMGT, the “Recovery of Candidate Peptides Percent of Total Phage After 3 Cycles of Selection” value (CaP Tissue Specimen 1) is 0.21% and the “Recovery of Candidate Peptides Percent of Total Phage After 3 Cycles of Selection” value (CaP Tissue Specimen 2) was 46.3%.
Turning to TLQRTHFPPVVF, the “# clones recovered” value is 19.
As to KPPQNTSAPYLP, the “# clones recovered” value is reported as 659.
The same measure, in the same setting: as for TLQRTLFSAGVF, the figure is 9; as for TLQRTHFPLAFS, 3.
The same measure, in the same setting: as for TLQRTHFPSG, the figure is 47.
On the same count and under the same terms, as for TLQRTHFSPAFS, the figure is 4; as for TMGFTAPRFPHM, 2.
In the case of TMGFTAPRFPHY, the “Recovery of Candidate Peptides Percent of Total Phage After 3 Cycles of Selection” value (CaP Tissue Specimen 1) is 26.5% and the “Recovery of Candidate Peptides Percent of Total Phage After 3 Cycles of Selection” value (CaP Tissue Specimen 2) was 4.78%.
On the same counts, the results for DQHGFMHIFDL are 0.4% and 0.1%.
As for TLQRTHFPSGV, the “# clones recovered” value was 19.
Consider TLQRTHFRPAFR, for which the “# clones recovered” value was found to be 21.
The same measure, in the same setting: as for TLQRTHFPPA, the figure is 30.
Consider SPHWQPNAILL, for which the “# clones recovered” value turned out to be 2.
As for LLADTTHHRWT, the “Recovery of Candidate Peptides Percent of Total Phage After 3 Cycles of Selection” value is 0.1% (CaP Tissue Specimen 1) and 0.1% (CaP Tissue Specimen 2).
In the case of SPHWQPNAIFVN, the “# clones recovered” value stood at 36.
The same measure, in the same setting: as for TLQRTHFPPARR, the figure is 3.
The same measure, in the same setting: as for KPPQNTSAPY, the figure is 2.
Same read-out and setting: as for TLQRTHFPPVVS, the figure is 8.
On to KPPQNTSAPLSS, for which the “# clones recovered” value amounted to 3.
On the same count and under the same terms, as for TMGFTAPRFRIM, the figure is 5.
For the sequence TMGFTAPRFPLL, the “# clones recovered” value turned out to be 6.
For TMGFTAPRFQHY, the “# clones recovered” value is reported as 2.
As to SPHWQPNAI, the “Recovery of Candidate Peptides Percent of Total Phage After 3 Cycles of Selection” value by setting is: (CaP Tissue Specimen 1) 3.29%; (CaP Tissue Specimen 2) 1.53%.
As to HSAQPVKSKAWL, the “Recovery of Candidate Peptides Percent of Total Phage After 3 Cycles of Selection” value was 0.3% (CaP Tissue Specimen 1) and 0.2% (CaP Tissue Specimen 2).
As for TMGFTAPWFPHY, the “# clones recovered” value was 2.
Turning to TLQRTHFPSGVS, the “# clones recovered” value is listed as 14.
Still for that read-out and setting: as for TMGFTAPRFPAL, the figure is 2.
Same read-out and setting: as for TLQRTHFPPAFW, the figure is 3; as for TLQRTHFPRRFG, 3; as for TLQRTHFPRLFG, 3.
Consider TLQRTLFPPVVS, for which the “# clones recovered” value was 14.
On the same count and under the same terms, as for TLQRTHFSAGVF, the figure is 116.
With GAMHLPWHMGTL, the recovery result (in words) is given as “high recovery”.
With AETVESCLAKSH, the “Recovery of Candidate Peptides Percent of Total Phage After 3 Cycles of Selection” value is on record as 0.99% (CaP Tissue Specimen 1) and 0.5% (CaP Tissue Specimen 2).
SPHWQPNAIL: the “# clones recovered” value is recorded as 2.
On the same count and under the same terms, as for TLQRTHFPPAFR, the figure is 126.
Same read-out and setting: as for TMGFTAPRFPHC, the figure is 2.
Take TLQRTHFPPAFS: the “# clones recovered” value is on record as 7988. Besides, under “CaP Tissue Specimen 1”, the “Recovery of Candidate Peptides Percent of Total Phage After 3 Cycles of Selection” value is listed as 9.58%. The “Recovery of Candidate Peptides Percent of Total Phage After 3 Cycles of Selection” value (CaP Tissue Specimen 2) was found to be 7.57%.
Regarding TLQRTHFPRRFR, the “# clones recovered” value is listed as 6.
On the same count and under the same terms, as for TLQRTHFPPAAG, the figure is 3.
For TMGFTAPRFPSV, the “# clones recovered” value came out at 2.
Same read-out and setting: as for TMGFTAPRFPHH, the figure is 3; as for TLQRTHFPSGVF, 32; as for TLQRTHFRPAF, 6.
On the same count and under the same terms, as for KPPQNTSAPYLR, the figure is 2; as for TMGFTAPRFP, 9.
Still for that read-out and setting: as for KPPQNTSCAFIF, the figure is 2; as for TMGFTAPRFPHQ, 8.
For the sequence TLQRTLFSAGRF, the “# clones recovered” value amounted to 32.
As to TMGFTAPRRGAV, the “# clones recovered” value came to 2.
The same measure, in the same setting: as for TLQRTHFSVR, the figure is 4; as for TLQRTHFRRRFG, 95.

The values above are taken from patent publication US10344052B2, “Targeting peptides and uses thereof” (Health Research, Inc., priority 2013, dated 2019).
